Experimental data from patent US8877748B2, “Heterocyclic fused anthraquinone derivatives, manufacturing method and pharmaceutical composition using thereof” (National Defense Medical Center, priority 2012, dated 2014).

Assays:
Type in all cases: cell-based, human
OVCAR-5 = assay: NCI one-dose screening, ovarian cancer OVCAR-5; settings: OVCAR-5, 10 μM
NCI-H226 = assay: NCI one-dose screening, non-small cell lung cancer NCI-H226; settings: NCI-H226, 10 μM
SK-MEL-28 = assay: NCI one-dose screening, melanoma SK-MEL-28; settings: SK-MEL-28, 10 μM
M14 = assay: NCI one-dose screening, melanoma M14; settings: M14, 10 μM
RXF, 393 = assay: NCI one-dose screening, renal cancer RXF, 393; settings: RXF 393, 10 μM
KM12 = assay: NCI one-dose screening, colon cancer KM12; settings: KM12, 10 μM
K562cell line = assay: NCI one-dose screening, leukemia K562; settings: K562, 10 μM
SN12C = assay: NCI one-dose screening, renal cancer SN12C; settings: SN12C
NCI-H460 = assay: NCI one-dose screening, non-small cell lung cancer NCI-H460; settings: NCI-H460, 10 μM
MOLT-4 = assay: NCI one-dose screening, leukemia MOLT-4; settings: MOLT-4, 10 μM
HCT-116 = assay: NCI one-dose screening, colon cancer HCT-116; settings: HCT-116, 10 μM
IGROV1 = assay: NCI one-dose screening, ovarian cancer IGROV1; settings: IGROV1, 10 μM
SNB-75 = assay: NCI one-dose screening, CNS cancer SNB-75; settings: SNB-75, 10 μM
SR = assay: NCI one-dose screening, leukemia SR; settings: SR
SK-MEL-5 = assay: NCI one-dose screening, melanoma SK-MEL-5; settings: SK-MEL-5, 10 μM
UACC-257 = assay: NCI one-dose screening, melanoma UACC-257; settings: UACC-257, 10 μM
NCI-H522 = assay: NCI one-dose screening, non-small cell lung cancer NCI-H522; settings: NCI-H522, 10 μM
[1] = tested on: PC-3 prostate cancer cell line; assay: SRB assay cell viability, PC-3 prostate cancer cell line; settings: Homo sapiens, PC-3 prostate cancer cell line, Table II prints no unit, μM printed, read-out: SRB assay: 50% inhibition of cancer cell proliferation of sample concentration (IC50) of PC-3 prostate cancer cell line
PRMI-8226 cell line = assay: NCI one-dose screening, leukemia PRMI-8226; settings: RPMI-8226, 10 μM
TK-10 = assay: NCI one-dose screening, renal cancer TK-10; settings: TK-10, 10 μM
MDA, -MB-435 = assay: NCI one-dose screening, breast cancer MDA, -MB-435; settings: Melanoma, MDA-MB-435, 10 μM
NCl/ADR-RES = assay: NCI one-dose screening, breast cancer NCl/ADR-RES; settings: Ovarian cancer, NCI/ADR-RES
MDA-MB-231/ATCC = assay: NCI one-dose screening, breast cancer MDA-MB-231/ATCC; settings: MDA-MB-231/ATCC
HOP-62 = assay: NCI one-dose screening, non-small cell lung cancer HOP-62; settings: HOP-62, 10 μM
OVCAR-8 = assay: NCI one-dose screening, ovarian cancer OVCAR-8; settings: OVCAR-8, 10 μM
NCI-H23 = assay: NCI one-dose screening, non-small cell lung cancer NCI-H23; settings: NCI-H23, 10 μM
LOX IMVI = assay: NCI one-dose screening, melanoma LOX IMVI; settings: LOX IMVI
U251 = assay: NCI one-dose screening, CNS cancer U251; settings: U251, 10 μM
MDA-MB-468 = assay: NCI one-dose screening, breast cancer MDA-MB-468; settings: MDA-MB-468, 10 μM
HT29 = assay: NCI one-dose screening, colon cancer HT29; settings: HT29, 10 μM
SNB-19 = assay: NCI one-dose screening, CNS cancer SNB-19; settings: SNB-19, 10 μM
MCF7 = assay: NCI one-dose screening, breast cancer MCF7; settings: MCF7, 10 μM
NCI-H322M = assay: NCI one-dose screening, non-small cell lung cancer NCI-H322M; settings: Non-small cell lung cancer, NCI-H322M, 10 μM
ACHN = assay: NCI one-dose screening, renal cancer ACHN; settings: ACHN
HS 578-T = assay: NCI one-dose screening, breast cancer HS 578-T; settings: Breast cancer, HS 578T, 10 μM
DU145 = assay: NCI one-dose screening, prostate cancer DU145; settings: DU145, 10 μM
SK-MEL-2 = assay: NCI one-dose screening, melanoma SK-MEL-2; settings: SK-MEL-2, 10 μM
SF-295 = assay: NCI one-dose screening, CNS cancer SF-295; settings: SF-295, 10 μM
UO-31 = assay: NCI one-dose screening, renal cancer UO-31; settings: UO-31, 10 μM
OVCAR-3 = assay: NCI one-dose screening, ovarian cancer OVCAR-3; settings: OVCAR-3, 10 μM
CCRF-CEM = assay: NCI screening platform one-dose single concentration screening, leukemia CCRF-CEM; settings: CCRF-CEM
HL-60, TB = assay: NCI one-dose screening, leukemia HL-60, TB; settings: HL-60(TB)
CAKI-1 = assay: NCI one-dose screening, renal cancer CAKI-1; settings: CAKI-1, 10 μM

In the case of Cc1ccc(Nc2cc3c(c4nsnc24)C(=O)c2ccccc2C3=O)cc1 [C64, 4-(p-tolylamino)anthra[2,1-c][1,2,5] thiadiazol-6,11-dione], the “Growth Percent (10 μM)” value (OVCAR-5) is reported as 109.85%, the “Growth Percent (10 μM)” value (NCI-H226) is reported as 66.61% and the “Growth Percent (10 μM)” value (SK-MEL-28) is reported as 74.97%. The “Growth Percent (10 μM)” value (M14) was 76.72%, the “Growth Percent (10 μM)” value (RXF, 393) was 71.05% and the “Growth Percent (10 μM)” value (KM12) was 64.56%. The “Growth Percent (10 μM)” value (K562cell line) was 33.45%, the “Growth Percent (10 μM)” value (SN12C) was 74.58% and the “Growth Percent (10 μM)” value (NCI-H460) was 21.80%. For the same compound, the “Growth Percent (10 μM)” value (MOLT-4) was 12.86%, the “Growth Percent (10 μM)” value (HCT-116) was 31.32% and the “Growth Percent (10 μM)” value (IGROV1) was 49.40%. The “Growth Percent (10 μM)” value (SNB-75) was 80.91%, the “Growth Percent (10 μM)” value (SR) was 26.12% and the “Growth Percent (10 μM)” value (SK-MEL-5) was 24.13%. The “Growth Percent (10 μM)” value (UACC-257) was 71.17%, the “Growth Percent (10 μM)” value (NCI-H522) was 53.06% and the IC50 [1] was 0.84 µM. The “Growth Percent (10 μM)” value (PRMI-8226 cell line) was 21.59%, the “Growth Percent (10 μM)” value (TK-10) was 95.15% and the “Growth Percent (10 μM)” value (MDA, -MB-435) was 65.53%. For the same compound, the “Growth Percent (10 μM)” value (NCl/ADR-RES) was 61.34%, the “Growth Percent (10 μM)” value (MDA-MB-231/ATCC) was 73.83% and the “Growth Percent (10 μM)” value (HOP-62) was 65.10%. The “Growth Percent (10 μM)” value (OVCAR-8) was 53.96%, the “Growth Percent (10 μM)” value (NCI-H23) was 45.87% and the “Growth Percent (10 μM)” value (LOX IMVI) was 27.05%. For the same compound, the “Growth Percent (10 μM)” value (U251) was 34.17%, the “Growth Percent (10 μM)” value (MDA-MB-468) was 58.18% and the “Growth Percent (10 μM)” value (HT29) was 96.29%. For the same compound, the “Growth Percent (10 μM)” value (SNB-19) was 82.28%, the “Growth Percent (10 μM)” value (MCF7) was 46.59% and the “Growth Percent (10 μM)” value (NCI-H322M) was 94.85%. The “Growth Percent (10 μM)” value (ACHN) was 57.60%, the “Growth Percent (10 μM)” value (HS 578-T) was 78.75% and the “Growth Percent (10 μM)” value (DU145) was 68.26%. The “Growth Percent (10 μM)” value (SK-MEL-2) was 93.85%, the “Growth Percent (10 μM)” value (SF-295) was 75.76% and the “Growth Percent (10 μM)” value (UO-31) was 56.97%. The “Growth Percent (10 μM)” value (OVCAR-3) was 57.92%, the “Growth Percent (10 μM)” value (CCRF-CEM) was 59.59% and the “Growth Percent (10 μM)” value (HL-60, TB) was 46.13%. For the same compound, the “Growth Percent (10 μM)” value (CAKI-1) was 50.33%.
